# In patent US9758492B2, “IDO inhibitors” (Bristol-Myers Squibb Company, priority 2013, dated 2017):
# pIC50: −log10 of the molar value.
# Experiments:
# Human IDO1 = molecular target: T1, Human IDO1 (Homo sapiens, UniProt P14902); test: IDO Kynurenine Assay with Human IDO1/HEK293 Cells; format: cell-based; details: read-out: HEK human IDO-1 (IC50)
# T1 construct: expressed in transfected cells; host or cells: HEK293
# Protocol: IDO Kynurenine Assay with Human IDO1/HEK293 Cells
# Human IDO1/HEK293 cells were seeded at 10,000 cells per 50 uL per well with RPMI/phenol red free media contains 10% FBS in a 384-well black wall clear bottom tissue culture plate (Matrix Technologies LLC) 125 nL of certain concentration of compound was then added to each well using ECHO liquid handling systems. The cells were incubated for 20 hours in 37° C. incubator with 5% CO2.
# The compound treatments were stopped by adding Trichloroacetic Acid (Sigma-Aldrich) to a final concentration at 0.2%. The cell plate was further incubated at 50° C. for 30 minute. The equal volume supernatant (20 uL) and 0.2% (w/v) Ehrlich reagent (4-dimethylaminobenzaldehyde, Sigma-Aldrich) in glacial acetic acid were mixed in a new clear bottom 384-well plate. This plate was then incubated at room temperature for 30 minute. The absorbance at 490 nm was measured on Envision plate reader.
# Compound IC50 values were calculated using the counts of 500 nM of a reference standard treatment as one hundred percent inhibition, and counts of no compound but DMSO treatment as zero percent inhibition.
# IDO = IDO (Homo sapiens, UniProt P14902); test: LLE_IDO_ABS_DR (IDO assay)
# Chain of IDO (P14902 whole entry): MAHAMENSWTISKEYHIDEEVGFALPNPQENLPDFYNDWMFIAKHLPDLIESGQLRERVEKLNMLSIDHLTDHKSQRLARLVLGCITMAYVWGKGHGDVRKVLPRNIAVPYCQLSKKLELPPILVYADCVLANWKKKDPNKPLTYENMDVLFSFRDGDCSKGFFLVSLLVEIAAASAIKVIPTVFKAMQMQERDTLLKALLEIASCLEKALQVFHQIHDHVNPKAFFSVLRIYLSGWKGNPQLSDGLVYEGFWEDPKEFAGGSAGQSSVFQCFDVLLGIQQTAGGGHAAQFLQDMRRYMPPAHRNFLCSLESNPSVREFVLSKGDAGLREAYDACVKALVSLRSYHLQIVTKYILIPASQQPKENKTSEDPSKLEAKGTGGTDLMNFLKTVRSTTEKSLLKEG
# T1 sequence (P14902 whole entry): as above
Compound,pIC50 (Human IDO1),pIC50 (IDO)
C=C(C)CN(CCCC(F)(F)F)c1ccc(-c2cc(F)ccc2C(=O)O)cc1NC(=O)Nc1ccc(C)cc1 [Example 419],8.29,
C=C(C)CN(CCCC(F)(F)F)c1ccc(-c2ccccc2-c2nnn[nH]2)cc1NC(=O)Nc1ccc(C)cc1 [Example 417],8.72,
Cc1ccc(NC(=O)Nc2cc(-c3ccccc3-c3nnn[nH]3)cc(F)c2N(CC(C)C)C2CCCCC2)cc1 [Example 433],8.71,
CC(C)CN(c1cc(F)c(-c2cc(F)ccc2C(=O)O)cc1NC(=O)Nc1cncnc1)C1CCCCC1 [Example 486],7.52,
CC(C)CN(c1c(F)cc(-c2ccccc2-c2nnn[nH]2)cc1NC(=O)Nc1ccccc1F)C1CCCCC1 [Example 430],9.22,
COCCN(c1ccc(-c2cc(F)ccc2C(=O)O)cc1NC(=O)Nc1ccc(Cl)cc1F)C1CCCCC1 [Example 451],8.76,
"CC(C)CN(c1cc(F)c(-c2cc(F)ccc2C(=O)O)cc1NC(=O)Nc1cnn(CC(F)(F)F)c1)C1CCC(F)(F)CC1 [Example 520, 4′-((4,4-Difluorocyclohexyl)(isobutyl)amino)-2′,5-difluoro-5′-(3-(1-(2,2,2-trifluoroethyl)-1H-pyrazol-4-yl)ureido)-[1,1′-biphenyl]-2-carboxylic acid]",5.31,
CCOc1ccc(NC(=O)Nc2cc(-c3cc(F)ccc3C(=O)O)ccc2N(C2CC2)C2CC2)cc1 [Example 543],5.14,
"CC(C)CN(c1cc(F)c(-c2ccccc2-c2nnn[nH]2)cc1NC(=O)Nc1ccc2c(c1)OCO2)C1CCC(F)(F)CC1 [Example 532, 1-(Benzo[d][1,3]dioxol-5-yl)-3-(4-((4,4-difluorocyclohexyl)(isobutyl)amino)-6-fluoro-2′-(1H-tetrazol-5-yl)-[1,1′-biphenyl]-3-yl)urea]",8.32,
COCCN(c1ccc(-c2ccccc2-c2nnn[nH]2)cc1NC(=O)Nc1ccc(Cl)cc1F)C1CCCCC1 [Example 452],9.18,
COC(C)(C)CCN(c1ccc(-c2cc(F)ccc2C(=O)O)cc1NC(=O)Nc1ccc(C)cc1)C1CCCCC1 [Example 421],5.48,
COCCN(c1ccc(-c2ccccc2-c2nnn[nH]2)cc1NC(=O)Nc1ccc(C)cc1)C1CCCCC1 [Example 446],8.61,
Cc1ccc(NC(=O)Nc2cc(-c3cc(F)ccc3C(=O)O)c(F)cc2N(CC(C)C)C2C[C@H]3CC[C@@H]2C3)cc1 (stereo partly shown) [Example 410],7.30,
Cc1cc(NC(=O)Nc2cc(-c3cc(F)ccc3C(=O)O)c(F)cc2N(CC(C)C)C2CCCCC2)on1 [Example 376],8.67,
COCCN(c1ccc(-c2ccccc2C(=O)O)cc1NC(=O)Nc1ccc(Cl)cc1F)C1CCCCC1 [Example 456],9.06,
"Cc1ccc(NC(=O)Nc2cc(-c3ccccc3-c3nnn[nH]3)ccc2N(CC(C)(F)F)C2CCCCC2)cc1 [Example 356, 1-(4-(cyclohexyl(2,2-difluoropropyl)amino)-2′-(1H-tetrazol-5-yl)-[1,1′-biphenyl]-3-yl)-3-(p-tolyl)urea]",8.39,
Cc1ccc(NC(=O)Nc2cc(-c3ccccc3C(=O)O)ccc2N(CCCC(F)(F)F)C2CCCCC2)cc1 [Example 416],7.00,
"Cc1ccc(NC(=O)Nc2cc(-c3ccccc3C(=O)O)c(F)cc2N(CC(C)C)C2CCC(F)(F)CC2)cc1 [Example 533, 4′-((4,4-Difluorocyclohexyl)(isobutyl)amino)-2′-fluoro-5′-(3-(p-tolyl)ureido)-[1,1′-biphenyl]-2-carboxylic acid]",8.10,
CC(C)CN(c1c(F)cc(-c2cc(F)ccc2C(=O)O)cc1NC(=O)Nc1ccccc1F)C1CCCCC1 [Example 431],8.42,
CC(C)CN(c1c(F)cc(-c2cc(F)ccc2C(=O)O)cc1NC(=O)Nc1ccc(Cl)cc1F)C1CCCCC1 [Example 434],8.43,
C=C(C)CN(CCCC(F)(F)F)c1ccc(-c2ccccc2C(=O)O)cc1NC(=O)Nc1ccc(C)cc1 [Example 418],8.33,
Cc1cc(NC(=O)Nc2cc(-c3cc(F)ccc3C(=O)O)c(F)cc2N(CC(C)C)[C@@H]2C[C@H]3CC[C@@H]2C3)no1 [Example 385],6.70,
"Cc1ccc(NC(=O)Nc2cc(-c3ccccc3-c3nnn[nH]3)ccc2N(CC(C)C)[C@H]2CC[C@@H](C(F)(F)F)CC2)cc1 [Example 305, 1-(4-(isobutyl(4-(trifluoromethyl)cyclohexyl)amino)-2′-(1H-tetrazol-5-yl)-[1,1′-biphenyl]-3-yl)-3-(p-tolyl) urea]",8.22,
"[2H]C([2H])(C(C)C)N(c1ccc(-c2ccccc2-c2nnn[nH]2)cc1NC(=O)Nc1ccccc1F)C1CCCCC1 [Example 32, 1-(4-(Cyclohexyl(1,1-dideutero-2-methylpropyl)amino)-2′-(1H-tetrazol-5-yl)biphenyl-3-yl)-3-(2-fluorophenyl)urea]",,8.60

# Continued, values first:
pIC50 (Human IDO1),pIC50 (IDO),Compound
6.80,,Cc1ccc(NC(=O)Nc2cc(-c3cccc(Cl)c3C(=O)O)ccc2N(CC(C)C)CC(C)C)cc1 [Example 492]
7.70,,Cc1ccc(NC(=O)Nc2cc(-c3cc(F)ccc3C(=O)O)ccc2N(CC(C)C)C2CCCCC2)cn1 [Example 399]
8.00,,Cc1ccc(NC(=O)Nc2cc(-c3ccccc3C(=O)O)c(F)cc2N(CC(C)C)CC(C)C)cc1 [Example 425]
8.22,,Cc1cc(NC(=O)Nc2cc(-c3ccccc3-c3nnn[nH]3)ccc2N(CC(C)C)CC(C)C)on1 [Example 396]
5.90,,COc1cccc(-c2ccc(N(CC(C)C)CC(C)C)c(NC(=O)Nc3ccc(C#N)nc3)c2)c1C(=O)O [Example 499]
8.00,,Cc1cc(NC(=O)Nc2cc(-c3cc(F)ccc3C(=O)O)ccc2N(CC(C)C)C2CCCCC2)no1 [Example 408]
6.80,,"Cc1ccc(C(=O)O)c(-c2ccc(N(CC(C)C)CC(C)C)c(NC(=O)Nc3ccc(F)cc3F)c2)c1 [Example 528, 3′-(3-(2,4-Difluorophenyl)ureido)-4′-(diisobutylamino)-5-methyl-[1,1′-biphenyl]-2-carboxylic acid]"
5.83,,COC(C)(C)CCN(CCCC(F)(F)F)c1ccc(-c2ccccc2C(=O)O)cc1NC(=O)Nc1ccc(C)cc1 [Example 422]
8.26,,CCC(CC)N(CC(C)C)c1ccc(-c2cc(F)ccc2C(=O)O)cc1NC(=O)Nc1ccccc1F [Example 450]
8.28,,[2H]C([2H])(C(C)C)N(c1ccc(-c2ccccc2-c2nnn[nH]2)cc1NC(=O)Nc1ccc(C)cc1)C([2H])([2H])C(C)C [Example 424]
6.85,,"Cc1cc(NC(=O)Nc2cc(-c3cccc(C)c3C(=O)O)ccc2N(CC(C)C)CC(C)C)on1 [Example 535, 4′-(Diisobutylamino)-3-methyl-3′-(3-(3-methylisoxazol-5-yl)ureido)-[1,1′-biphenyl]-2-carboxylic acid]"
6.52,,"Cc1ccc(NC(=O)Nc2cc(-c3cc(C)ccc3C(=O)O)ccc2N(CC(C)C)CC(C)C)cc1 [Example 530, 4′-(Diisobutylamino)-5-methyl-3′-(3-(p-tolyl)ureido)-[1,1′-biphenyl]-2-carboxylic acid]"
5.98,,CC(C)CN(c1ccc(-c2cc(F)ccc2C(=O)O)cc1NC(=O)Nc1cnc2c(c1)ncn2C)C1CCCCC1 [Example 487]
5.93,,CC(C)CN(c1ccc(-c2cc(F)ccc2C(=O)O)cc1NC(=O)Nc1ccnnc1)C1CCCCC1 [Example 401]
6.49,,CC(C)CN(CC(C)C)c1ccc(-c2cccc(OC(F)(F)F)c2C(=O)O)cc1NC(=O)Nc1ccc(C#N)nc1 [Example 501]
8.50,,Cc1ccc(NC(=O)Nc2cc(-c3ccccc3C(=O)O)cc(F)c2N(CC(C)C)C2CCCCC2)cc1 [Example 437]
6.10,,CC(C)CN(CC(C)C)c1ccc(-c2ccccc2-c2nnn[nH]2)cc1NC(=O)NC1CCCC1 [Example 464]
5.51,,CC(C)CN(c1ccc(-c2cc(F)ccc2C(=O)O)cc1NC(=O)Nc1ccc2nccn2c1)C1CCCCC1 [Example 407]
8.65,,CCC(CC)N(CC(C)C)c1ccc(-c2cc(F)ccc2C(=O)O)cc1NC(=O)Nc1ccc(Cl)cc1F [Example 442]
6.23,,COc1ccc(-c2ccc(N(CC(C)C)CC(C)C)c(NC(=O)Nc3ccc(C#N)nc3)c2)c(C(=O)O)c1 [Example 498]
8.00,,CCOc1ccc(NC(=O)Nc2cc(-c3cc(F)ccc3C(=O)O)c(F)cc2N(CC(C)C)C2CCC(F)(F)CC2)cc1 [Example 540]
6.41,,"CCOc1ccc(NC(=O)Nc2cc(-c3cc(C)ccc3C(=O)O)ccc2N(CC(C)C)CC(C)C)cc1 [Example 529, 4′-(Diisobutylamino)-3′-(3-(4-ethoxyphenyl)ureido)-5-methyl-[1,1′-biphenyl]-2-carboxylic acid]"
8.01,,CC(C)CN(CC(C)C)c1ccc(-c2ccccc2-c2nnn[nH]2)cc1NC(=O)Nc1cc(C(F)(F)F)no1 [Example 398]
8.26,,Cc1ccc(NC(=O)Nc2cc(-c3ccccc3-c3nnn[nH]3)c(F)cc2N(CC(C)C)CC(C)C)cc1 [Example 429]
8.79,,CC(C)CN(CC(C)C)c1cc(F)c(-c2ccccc2C(=O)O)cc1NC(=O)Nc1ccc(Cl)cc1F [Example 427]
7.30,,Cc1ccc(NC(=O)Nc2cc(-c3cccc(OC(F)(F)F)c3C(=O)O)ccc2N(CC(C)C)CC(C)C)cc1 [Example 495]
6.92,,Cc1ccc(NC(=O)Nc2cc(-c3cc(Cl)ccc3C(=O)O)ccc2N(CC(C)C)CC(C)C)cc1 [Example 493]
6.85,,CC(C)CN(CC(C)C)c1ccc(-c2ccccc2-c2nnn[nH]2)cc1NC(=O)Nc1ccc2c(c1)CCC2 [Example 458]
